What was measured:
[1] = target: Bcl-XL (Homo sapiens (Human), UniProt Q07817); experiment: Bcl-2 protein family binding assay (Bcl2scan platform), Bcl-XL; conditions: BIM peptide ligand, 11-point dilution, read-out: Bc1-XL Kd (nm)
Method: (§1) E. coli were grown to log-phase and infected with T7 phage from a frozen stock (multiplicity of infection=0.4) and incubated with shaking at 32° C. until lysis (90-150 minutes). The lysates were centrifuged (5,000×g) and filtered (0.2 μm) to remove cell debris. […] The liganded beads were blocked with excess biotin and washed with blocking buffer (SeaBlock (Pierce), 1% BSA, 0.05% Tween 20, 1 mM DTT) to remove unbound ligand and to reduce non-specific phage binding. […] Test compounds were prepared as 100× stocks in 100% DMSO. Kds were determined using an 11-point 3-fold compound dilution series with one DMSO control point. […] The compounds were then diluted directly into the assays such that the final concentration of DMSO was 0.9%. All reactions performed in polypropylene 384-well plates. Each was a final volume of 0.02 ml. […] The BCL2 concentration in the eluates was measured by qPCR. Binding constants (Kds) were calculated with a standard dose-response curve using the Hill equation:
(§2) [formula] The Hill Slope was set to −1. Curves were fitted using a non-linear least square fit with the Levenberg-Marquardt algorithm.

[2] = tested on: RS4;11 cells; experiment: RS4;11 cell proliferation assay (CellTiter-Glo); assay type: cell-based; conditions: Homo sapiens, RS4-11, 48 h, read-out: RS4;11 (nM), CTG IC50
Method: Cell proliferation was measured using the CellTiter-Glo® Luminescent Cell Viability Assay. The assay involved the addition of a single reagent (CellTiter-Glo® Reagent) directly to cells cultured in serum-supplemented medium.
Each compound evaluated was prepared as a DMSO stock solution (10 mM). Compounds were tested in duplicate on each plate, with a 10-point serial dilution curve (1:3 dilution). Compound treatment (1.0 μL) was added from the compound dilution plate to the cell plate. The highest compound concentration was 10 μM (final), with a 0.1% final DMSO concentration. Plates were then incubated at 37° C., 5% CO2. After 48 h of compound treatment for RS4;11 or 72 h for NCI-H1963, cell plates were equilibrated at rt for approximately 30 mins. An equi-volume amount of CellTiter-Glo® Reagent (40 μL) was added to each well. […] Luminescence was recorded using a Envision plate reader according to CellTiter-Glo protocol. IC50 of each compound was calculated using GraphPad Prism by nonlinear regression analysis.

[3] = target: Bcl-2 (Homo sapiens (Human), UniProt P10415); experiment: Bcl-2 protein family binding assay (Bcl2scan platform), Bcl-2; conditions: BIM peptide ligand, 11-point dilution, read-out: Bc1-2 Kd (nm)
Bcl-2, sequence (P10415 whole entry): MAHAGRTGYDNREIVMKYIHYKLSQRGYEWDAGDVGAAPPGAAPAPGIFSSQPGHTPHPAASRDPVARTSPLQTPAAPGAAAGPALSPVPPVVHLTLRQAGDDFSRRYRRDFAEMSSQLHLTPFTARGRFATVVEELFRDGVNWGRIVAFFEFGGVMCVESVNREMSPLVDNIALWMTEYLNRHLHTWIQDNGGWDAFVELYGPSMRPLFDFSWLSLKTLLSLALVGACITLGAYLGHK
Method: as §1, §2

Bcl-XL, sequence (Q07817 whole entry): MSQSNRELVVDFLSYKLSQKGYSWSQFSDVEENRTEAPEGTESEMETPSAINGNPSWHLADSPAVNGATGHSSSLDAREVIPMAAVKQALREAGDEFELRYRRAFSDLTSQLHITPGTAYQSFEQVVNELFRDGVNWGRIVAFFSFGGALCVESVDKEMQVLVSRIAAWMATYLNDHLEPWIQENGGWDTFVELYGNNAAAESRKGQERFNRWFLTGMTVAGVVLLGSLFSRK

| SMILES | Kd [1] [nM] | IC50 [2] [nM] | Kd [3] [nM] |
| --- | --- | --- | --- |
| CC1(C)CCC(CN2CCN(c3ccc(C(=O)NS(=O)(=O)c4ccc(NCC5CCOCC5)c([N+](=O)[O-])c4)c(Oc4cnc5[nH]ccc5c4)c3)CC2)=C(C23CC(Cl)(C2)C3)C1 [Example 1, 2-(1H-Pyrrolo[2,3-b]pyridin-5-yl-oxy)-4-(4-((2-(3-chlorobicyclo[1.1.1]pentan-1-yl)-4,4-dimethylcyclohex-1-en-yl)methyl)piperazin-1-yl)-N-(3-nitro-4-((tetrahydro-2H-pyran-4-yl)methylamino)phenylsulfonyl)benzamide] | > 100 | < 100 | < 10 |
| CC1(C)CCC(CN2CCN(c3ccc(C(=O)NS(=O)(=O)c4ccc(NCC5CCOCC5)c([N+](=O)[O-])c4)c(Oc4cnc5[nH]ccc5c4)c3)CC2)=C(C23CC(C)(C2)C3)C1 [Example 9, 2-(1H-pyrrolo[2,3-b]pyridin-5-yloxy)-4-(4-((4,4-dimethyl-2-(3-methylbicyclo[1.1.1]pentan-1-yl)cyclohex-1-enyl)methyl)piperazin-1-yl)-N-(3-nitro-4-((tetrahydro-2H-pyran-4-yl)methylamino)phenylsulfonyl)benzamide] | > 100 | < 100 | < 10 |
| CC1(C)CCC(CN2CCN(c3ccc(C(=O)NS(=O)(=O)c4ccc(NCC5CCOCC5)c([N+](=O)[O-])c4)c(Oc4cnc5[nH]ccc5c4)c3)CC2)=C(C23CC(F)(C2)C3)C1 [Example 10, 2-(1H-pyrrolo[2,3-b]pyridin-5-yloxy)-4-(4-((2-(3-fluorobicyclo[1.1.1]pentan-1-yl)-4,4-dimethylcyclohex-1-enyl)methyl)piperazin-1-yl)-N-(3-nitro-4-((tetrahydro-2H-pyran-4-yl)methylamino)phenylsulfonyl)benzamide] | > 100 | < 100 | < 10 |
| CC1(C)CCC(CN2CCN(c3ccc(C(=O)NS(=O)(=O)c4ccc(NCC5CC6(CCOCC6)C5)c([N+](=O)[O-])c4)c(Oc4cnc5[nH]ccc5c4)c3)CC2)=C(C23CC(C)(C2)C3)C1 [Example 11, 2-((1H-pyrrolo[2,3-b]pyridin-5-yl)oxy)-N-((4-(((7-oxaspiro[3.5]nonan-2-yl)methyl)amino)-3-nitrophenyl)sulfonyl)-4-(4-((4,4-dimethyl-2-(3-methylbicyclo[1.1.1]pentan-1-yl)cyclohex-1-en-1-yl)methyl)piperazin-1-yl)benzamide] | > 100 | < 100 | < 10 |
| CN1CCC(F)(CNc2ccc(S(=O)(=O)NC(=O)c3ccc(N4CCN(CC5=C(C67CC(C)(C6)C7)CC(C)(C)CC5)CC4)cc3Oc3cnc4[nH]ccc4c3)cc2[N+](=O)[O-])CC1 [Example 13, 2-((1H-pyrrolo[2,3-b]pyridin-5-yl)oxy)-4-(4-((4,4-dimethyl-2-(3-methylbicyclo[1.1.1]pentan-1-yl)cyclohex-1-en-1-yl)methyl)piperazin-1-yl)-N-((4-(((4-fluoro-1-methylpiperidin-4-yl)methyl)amino)-3-nitrophenyl)sulfonyl)benzamide] | > 100 | < 100 | < 10 |
| CC1(C)CCC(CN2CCN(c3ccc(C(=O)NS(=O)(=O)c4ccc(OCC5(F)CCOCC5)c([N+](=O)[O-])c4)c(Oc4cnc5[nH]ccc5c4)c3)CC2)=C(C23CC(C)(C2)C3)C1 [Example 16, 2-((1H-pyrrolo[2,3-b]pyridin-5-yl)oxy)-4-(4-((4,4-dimethyl-2-(3-methylbicyclo[1.1.1]pentan-1-yl)cyclohex-1-en-1-yl)methyl)piperazin-1-yl)-N-((4-((4-fluorotetrahydro-2H-pyran-4-yl)methoxy)-3-nitrophenyl)sulfonyl)benzamide] | > 100 | < 100 | < 10 |
| CN1CCOC(CNc2ccc(S(=O)(=O)NC(=O)c3ccc(N4CCN(CC5=C(C67CC(C)(C6)C7)CC(C)(C)CC5)CC4)cc3Oc3cnc4[nH]ccc4c3)cc2[N+](=O)[O-])C1 (centres unmarked) [Example 17, 2-((1H-pyrrolo[2,3-b]pyridin-5-yl)oxy)-4-(4-((4,4-dimethyl-2-(3-methylbicyclo[1.1.1]pentan-1-yl)cyclohex-1-en-1-yl)methyl)piperazin-1-yl)-N-((4-(((4-methylmorpholin-2-yl)methyl)amino)-3-nitrophenyl)sulfonyl)benzamide] | 10 to 100 | < 100 | < 10 |
| CN1CCO[C@H](CNc2ccc(S(=O)(=O)NC(=O)c3ccc(N4CCN(CC5=C(C67CC(C)(C6)C7)CC(C)(C)CC5)CC4)cc3Oc3cnc4[nH]ccc4c3)cc2[N+](=O)[O-])C1 [Example 18, (R)-2-((1H-pyrrolo[2,3-b]pyridin-5-yl)oxy)-4-(4-((4,4-dimethyl-2-(3-methylbicyclo[1.1.1]pentan-1-yl)cyclohex-1-en-1-yl)methyl)piperazin-1-yl)-N-((4-(((4-methylmorpholin-2-yl)methyl)amino)-3-nitrophenyl)sulfonyl)benzamide] |  | < 100 |  |
| CN1CCO[C@@H](CNc2ccc(S(=O)(=O)NC(=O)c3ccc(N4CCN(CC5=C(C67CC(C)(C6)C7)CC(C)(C)CC5)CC4)cc3Oc3cnc4[nH]ccc4c3)cc2[N+](=O)[O-])C1 [Example 19, (S)-2-((1H-pyrrolo[2,3-b]pyridin-5-yl)oxy)-4-(4-((4,4-dimethyl-2-(3-methylbicyclo[1.1.1]pentan-1-yl)cyclohex-1-en-1-yl)methyl)piperazin-1-yl)-N-((4-(((4-methylmorpholin-2-yl)methyl)amino)-3-nitrophenyl)sulfonyl)benzamide] |  | < 100 |  |
| CCC12CC(C3=C(CN4CCN(c5ccc(C(=O)NS(=O)(=O)c6ccc(NCC7CCOCC7)c([N+](=O)[O-])c6)c(Oc6cnc7[nH]ccc7c6)c5)CC4)CCC(C)(C)C3)(C1)C2 [Example 23, 2-(1H-pyrrolo[2,3-b]pyridin-5-yloxy)-4-(4-((2-(3-ethylbicyclo[1.1.1]pentan-1-yl)-4,4-dimethylcyclohex-1-enyl)methyl)piperazin-1-yl)-N-(3-nitro-4-((tetrahydro-2H-pyran-4-yl)methylamino)phenylsulfonyl)benzamide] | > 100 | < 100 | < 10 |
| CCC12CC(C3=C(CN4CCN(c5ccc(C(=O)NS(=O)(=O)c6ccc(NCC7(F)CCOCC7)c([N+](=O)[O-])c6)c(Oc6cnc7[nH]ccc7c6)c5)CC4)CCC(C)(C)C3)(C1)C2 [Example 25, 2-((1H-pyrrolo[2,3-b]pyridin-5-yl)oxy)-4-(4-((2-(3-ethylbicyclo[1.1.1]pentan-1-yl)-4,4-dimethylcyclohex-1-en-1-yl)methyl)piperazin-1-yl)-N-((4-(((4-fluorotetrahydro-2H-pyran-4-yl)methyl)amino)-3-nitrophenyl)sulfonyl)benzamide] | > 100 | < 100 | < 10 |
| CCC12CC(C3=C(CN4CCN(c5ccc(C(=O)NS(=O)(=O)c6ccc(OCC7(F)CCOCC7)c([N+](=O)[O-])c6)c(Oc6cnc7[nH]ccc7c6)c5)CC4)CCC(C)(C)C3)(C1)C2 [Example 26, 2-((1H-pyrrolo[2,3-b]pyridin-5-yl)oxy)-4-(4-((2-(3-ethylbicyclo[1.1.1]pentan-1-yl)-4,4-dimethylcyclohex-1-en-1-yl)methyl)piperazin-1-yl)-N-((4-((4-fluorotetrahydro-2H-pyran-4-yl)methoxy)-3-nitrophenyl)sulfonyl)benzamide] | > 100 | < 100 | < 10 |

Reference: US11318134B2, “Benzamide compounds” (priority 2018, dated 2022)
